Marks after values point to notes of the source that are not given here.
Legend:
[1] = WO 01/95899; cited from earlier work
PTZ-induced seizures = assay: PTZ model of generalised (acute) seizures; type: in vivo, rat; conditions: for Anti-convulsant action in the PTZ model of acute seizure: 7-OH-CBDV 200 mg/kg, 7-OH-CBD 100 mg/kg IP; for Mortality / Latency to seizure onset / Maximum observed seizure severity (median): CBD and 7-OH CBD 100 mg/kg; for Mortality: FIG. 1B; for Latency to seizure onset: FIG. 1D; for Potency compared with parent cannabinoid: metabolite vs parent (CBD, CBDV) at the same dose; for Maximum observed seizure severity (median): IP 30 min before PTZ 70 or 80 mg/kg IP, score scale 0-6, FIG. 1A
Procedure: Male Wistar rats (P24-29; 75-110 g) were used to assess the effects of the cannabinoids listed above on the PTZ model of generalised seizures. Animals were habituated to the test environment, cages, injection protocol and handling prior to experimentation. Animals were housed in a room at 21° C. on a 12 hour light: dark cycle (lights on 0900) in 50% humidity, with free access to food and water.
Five 6 L Perspex (RTM) tanks with lids were placed on a single bench with dividers between them. Closed-circuit television (CCTV) cameras were mounted onto the dividers to observe rat behaviour. Sony Topica CCD cameras (Bluecherry, USA) were linked via BNC cables to a low-noise PC via Brooktree digital capture cards (Bluecherry, USA). Zoneminder (http://www.zoneminder.com) software was used to monitor rats, start and end recordings and manage video files. In-house Linux (RTM) scripts were used to encode video files into a suitable format for further offline analysis
Animals were filmed for half an hour after last sign of seizure, and then returned to their cage.
Animals were observed during experimental procedures, but all analysis was performed offline on recorded video files using The Observer behavioural analysis software (Noldus, Netherlands). A seizure severity scoring system was used to determine the levels of seizure experienced by subjects (Table 1). All signs of seizure were detailed for all animals.
The latency (in seconds) from injection of PTZ to first myoclonic jerk (FMJ; score of 1), and to the animal attaining “forelimb clonus with tonic component and body twist” (score of 3.5) were recorded. […] Data are presented as the mean±S.E.M. within an experimental group.
This is given as the median value for each experimental group based on the scoring scale above.
The percentage of animals within an experimental group that died as a result of PTZ-induced seizures. A score of 6 (death) automatically denotes that the animal also experienced tonic-clonic seizures.
This is given as the mean±S.E.M. for each experimental group.
Differences in latencies and durations were assessed by one-way analysis of variance (ANOVA) with post-hoc Tukey's test. P≤0.05 was considered significant.

[2] = tested on: Maximal electroshock seizures (MES); assay: Maximal electroshock (MES) model of seizure; type: in vivo, mouse
Procedure: The vehicle used in this study was 2:1:17 (ethanol:Cremophor:0.9% w/v NaCl). […] This was made to a solution at the highest concentration; then dissolved in ethanol before combination with Cremophor and 0.9% NaCl in the proportion described above. The 7-OH-CBDV was administered intraperitoneally at a volume of 10 ml/kg body weight.
Animal Species/Strain: Mouse/ICR, Microbiological grade: SPF, Inc. Sex: male, Age (at time of testing): 5-7 weeks old, Number of animals: about 5 animals per group. Temperature: 23±2° C., Humidity: 60±10%, Light conditions: 7 AM to 7 PM for the light period, 7 PM to 7 AM for the dark period. Chow and water: Free access to CRF-1 (Oriental Yeast Co, Ltd) and tap water.
One day before each experiment, mice were weighed and randomized into several groups in each test. On the morning of the experiment day, body weight was measured in order to calculate the administration volume of each animal. Vehicle, 7-OH-CBDV or CBDV was interperitoneally administered 30 minutes before electric stimuli. […]
All statistical analyses were performed using SAS Software for Windows, Release 9.1. The difference of the number (hindlimb extension or deaths) in each group was assessed using two-tailed Fisher's exact test. […]

[3] = tested on: seizures in epileptic patients; conditions: cited from earlier work
[4] = tested on: seizures after pro-convulsant drugs or an electric current; conditions: mice, after pro-convulsant drugs or an electric current (Consroe et al., 1982); cited from earlier work
[5] = IP 30 min before PTZ, CBDV and 7-OH CBDV 200 mg/kg, n=11
[6] = CBDV and 7-OH CBDV 200 mg/kg, n=11

## C=C(C)[C@@H]1CCC(CO)=C[C@H]1c1c(O)cc(CCCCC)cc1O [7-OH-CBD, 7-hydroxy-cannabidiol]
[1]
  Efficacy in a model of inflammation: found to be effective
PTZ-induced seizures
  Anti-convulsant action in the PTZ model of acute seizure: show anti-convulsant action
  Potency compared with parent cannabinoid: more potent than their parent cannabinoids
PTZ-induced seizures; [5]
  Mortality: reduction in mortality
  Latency to seizure onset: significantly reduce the latency to onset of seizures
PTZ-induced seizures; IP 30 min before PTZ, CBDV and 7-OH CBDV 200 mg/kg, n=11, listed as 7-OH CBD
  Latency to seizure onset: significantly reduced the latency to seizure onset

## C=C(C)[C@@H]1CCC(CO)=C[C@H]1c1c(O)cc(CCC)cc1O [7-OH-CBDV, 7-hydroxy-cannabidivarin]
[2]; 150 and 200 mg/kg i.p.
  Anti-convulsant effects in the MES model: anti-convulsant effects
PTZ-induced seizures
  Anti-convulsant action in the PTZ model of acute seizure: show anti-convulsant action
  Potency compared with parent cannabinoid: more potent than their parent cannabinoids
PTZ-induced seizures; [6]
  Maximum observed seizure severity (median): 3
PTZ-induced seizures; [5]
  Mortality: significant effect on mortality

## C=C(C)[C@@H]1CCC(C)=C[C@H]1c1c(O)cc(CCCCC)cc1O [CBD, Cannabidiol]
[3]; 200 mg/day pure CBD, four adult patients (Mechoulam and Carlini, 1978)
  Patients becoming seizure free: two of the four patients became seizure free
[3]; 200 mg/day pure CBD, open label, twelve institutionalized adult patients (Ames and Cridland, 1986)
  Control of seizures: ineffective in controlling seizures
[3]; eight adult patients with generalized epilepsy (Cunha et al., 1980)
  Number of patients with marked reduction of seizures: 4
[3]; eight epileptic patients (Carlini et al., 1981)
  Epileptic patients describing an improvement in their condition: Seven out of the eight
[4]
  Prevention of seizures: able to prevent seizures
PTZ-induced seizures; [5]
  Mortality: reduction in mortality

## C=C(C)[C@@H]1CCC(C)=C[C@H]1c1c(O)cc(CCC)cc1O [CBDV, Cannabidivarin]
[2]; 200 mg/kg i.p., 30 minutes before electric stimuli, ICR mice
  Percentage decrease in tonic clonic convulsions compared with vehicle: 82% ***
PTZ-induced seizures; [6]
  Maximum observed seizure severity (median): significantly reduced seizure severity
PTZ-induced seizures; [5]
  Mortality: significant effect on mortality
PTZ-induced seizures; IP 30 min before PTZ, CBDV and 7-OH CBDV 200 mg/kg, n=11, FIG. 1C
  Incidence of tonic clonic seizures: significantly reduced

Reference: patent publication US11793770B2, “7-OH-cannabidiol (7-OH-CBD) and/or 7-OH-cannabidivarin (7-OH-CBDV) for use in the treatment of epilepsy” (GW Research Limited, priority 2014, dated 2023)
